Patent US20120129919A1, “POLYCATIONIC AMPHIPHILIC CYCLOOLIGOSACCHARIDES AND THE USE THEREOF AS MOLECULAR TRANSPORTERS” (priority 2009, published 2012)

How the values were obtained:
[1] = test system: CHO-k1 cells; experiment: In vitro gene transfection of pEGFP-N3 complexes, GFP fluorescence; type: cell-based, Chinese hamster; conditions: pEGFP-N3 plasmid, N/P ratios between 0.1 and 20, FIG. 5
Procedure: Ovarian cells of wild-type Chinese hamsters (CHO-k1; no. ATCC CCL-61) were cultured in Dulbecco's modified Eagle's medium (DMEM) supplemented with 10% (v/v) of foetal bovine serum, 2 mM glutamine plus, 100 U/ml of penicillin and […] of streptomycin. Prior to the transfection, the cells were seeded in 24 well plates and incubated for 24 h, to reach an 80%-90% cell confluence. For the transfection experiments, plasmid pEGFP-N3 (1 μg) was mixed with the corresponding CD derivative at N/P ratios ranging between 0.1 and 20, at room temperature for 20 minutes, in a final volume of 20 μl. The mixture was diluted to 0.5 ml with DMEM without serum and added to each well. The untransfected cells and the naked pEGFP-N3 were used as negative controls. As a positive control, a transfection experiment was performed using 1 μl of Lipofectamine™ 2000 (Invitrogen) and 1.0 μg of DNA, following the manufacturer's instructions. The cells were incubated with the DNA-polycationic amphiphilic βCD mixtures for 18 h; subsequently, the transfection medium was eliminated and the cells were further cultured in DMEM medium plus 10% FBS for an additional 48-h period.
The transfected cells were washed three times with PBS and 600 μl of 0.5% triton X-100 in PBS. The plates were stirred for 10 min at room temperature, the lysate was recovered and the fluorescence was quantified in a Shimadzu RF-5301PC fluorimeter with an excitation wavelength of 460 nm (5 nm) and an emission wavelength of 510 nm (10 nm). The protein concentration was measured using the Bio-Rad protein assay (Hercules, Calif., USA).

[2] = test system: DNA of pEGFP-N3; experiment: Gel electrophoresis shift assay (binding/complexation of pDNA); conditions: pEGFP-N3 plasmid, N/P ratios between 0 and 10, FIG. 3
Procedure: Plasmid pEGFP-N3, used for the preparation of the DNA complexes and the transfection assay, is a 4729-bp (base pairs) plasmid. The quantities of polycationic amphiphilic βCD derivatives used were calculated on the basis of the desired DNA concentration, 0.02 mg/ml (50 μM phosphate), the N/P ratio, the molecular weight and the number of positive charges in the selected CD derivative. The experiments were performed for N/P 5, 10, 30 and 50. The DNA was diluted in milli-Q water to a final phosphate concentration of 50 μM; subsequently, the desired quantity of CD derivative was added from a 20-mg/ml solution (1:2 of Me2SO-water). The preparation was stirred with a vortex for a few seconds and incubated for 30 minutes.
The binding capacity of the polycationic amphiphilic DNA-βCD complex was analysed by gel electrophoresis. The stock solutions of βCD derivatives were prepared in 1:2 Me2SO-water, and the DNA was dissolved in 150 mM NaCl. The DNA of pEGFP-N3 (10 μl at 0.1 μg/μl) was mixed with an equal volume of βCD derivative using N/P ratios ranging between 0 and 10, and incubated for 30 min at room temperature prior to the addition of loading buffer (2 μl). One aliquot (5 μl) of each sample was subjected to agarose gel electrophoresis (0.8% w/v) in TAE buffer (40 mM Tris-acetate, 1 mM EDTA). The electrophoresis was performed at 7 V/cm and the gels were stained with ethidium bromide following the electrophoresis. The quantification of the intensity of the bands was performed with the NIH Image software (Rasband et al. 1995. Microbeam Analysis Soc. J. 4, 137-149). A value of 100 was assigned to the intensity of the band for naked DNA.

[3] = test system: DNA of pEGFP-N3 (DNase I digestion); experiment: DNase protection assay of pDNA complexes; conditions: for protection of pDNA against degradation by DNase: pEGFP-N3 complexes, N/P=5, DNase I 45 minutes at 37° C., FIG. 4
Procedure: The DNA of pEGFP-N3 (10 μl at 0.1 μg/μl) was mixed with an equal volume of stock solution of βCD derivative using N/P=5, and incubated for 30 min at room temperature. 15 μl of a DNase I solution (0.1 mg/ml in 50 mM Tris-HCl, pH 8, 2000 U/mg) were added to the mixture and it was incubated for 45 minutes at 37° C. Following the digestion, 20 μl of a 10% SDS solution were added and the samples were incubated for 2 h at 85° C. Finally, one aliquot (20 μl) of each sample was subjected to agarose gel electrophoresis (0.8% w/v) in TAE buffer.

Row | protection of pDNA against the environment ([3]; 10:pDNA complexes, N/P values greater than 4) | Substance | transfection efficiency [1] | complexation capacity / compaction of pDNA, stability of the CD:pDNA complex [2] | protection of pDNA against degradation by DNase [3]
1 | – | Heptakis[6(2-(4-(2,2-diaminoethylaminomethyl)-1H-1,2,3-triazole-1-yl)acetamidoethylthio)-6-deoxy-2,3-di-O-hexanoyl]cyclomaltoheptaose [Compound 17] | the rigid motif was more advantageous than the flexible architecture | the rigid motif was more advantageous than the flexible architecture | the rigid motif was more advantageous than the flexible architecture
2 | – | Heptakis[6(2-(4-aminomethyl-1H-1,2,3-triazole-1-yl)acetamidoethylthio)-6-deoxy-2,3-di-O-hexanoyl]cyclomaltoheptaose [Compound 16] | moderate increases | moderate increases | moderate increases
3 | – | Heptakis[6-(4-(2,2-diaminoethyl)aminomethyl)-1H-1,2,3-triazole-1-yl)-6-deoxy-2,3-di-O-myristoyl]cyclomaltoheptaose [Compound 11] | drastically reduced the transfection capacity | did not modify the complexation efficiency | –
4 | complete protection | Heptakis[6-(4-(2,2-diaminoethylaminomethyl)-1H-1,2,3-triazole-1-yl)-6-deoxy-2,3-di-O-hexanoyl]cyclomaltoheptaose tetradecahydrochloride [Compound 10] | surprisingly high transfection efficiencies, analogous to those obtained using Lipofectamine™ 2000 | stable 10:pDNA complexes | –
5 | – | Heptakis[6-(4-aminomethyl-1H-1,2,3-triazole-1-yl)-6-deoxy-2,3-di-O-hexanoyl]cyclomaltoheptaose heptahydrochloride [Compound 9] | transfection levels remained very low | improved complexation capacities of pDNA as compared to non-amphiphilic analogue 18 | plasmid still remains accessible to DNase
